We go through one molecule from patent publication US20180250308A1, “NR2B SELECTIVE NMDA-RECEPTOR ANTAGONISTS FOR TREATMENT OF IMMUNE-MEDIATED INFLAMMATORY DISEASES” (WESTFALISCHE WILHELMS-UNIVERSITAT MUNSTER, priority 2015, published 2018).

Assay [1] deals with T1, polyamine binding site of the NR2B subunit of the NMDA receptor (Homo sapiens, UniProt Q05586+Q13224).
T1 construct: host or cells: mouse L(tk-) cells; expression induced with dexamethasone, then membrane homogenate prepared
The assay is described as follows: Filtration-based receptor binding assay with [3H]-Ifenprodil, NR2B subunit. The note with it: membranes of L(tk-) cells expressing NR1-1a/NR2B, Ki by Cheng-Prusoff, mean ± SEM, read-out: affinity to the NR2B binding site of the NMDA receptor. The method, then: The determination was performed using a filtration-based receptor binding assay on 96-well-multiplates for the polyamine binding site of the NR2B subunit of the NMDA receptor using [^3H]-Ifenprodil as radioligand.
Mouse L(tk-) cells stably transfected with the dexamethasone-inducible eukaryotic expression vectors pMSG NR1-1a, pMSG NR2B in a 1:5 ratio were a generous gift from D. […] Steinhilber (Department of Pharmacy, University of Frankfurt, Germany). The transformed L(tk-) cells were grown in Modified Earl's Medium (MEM) containing 10% of standardized FCS (Biochrom AG, Berlin, Germany). The expression of the NMDA receptor at the cell surface was induced after the cell density of the adherent growing cells had reached approximately 90% of confluency. […]
For the binding assay, the cell pellet was resuspended in PBS buffer and the number of cells was determined using an improved Neubauer's counting chamber (VWR, Darmstadt, Germany). […]
The competitive binding assay was performed with the radioligand [^3H]-Ifenprodil (60 Ci/mmol; Perkin Elmer) using standard 96-well-multiplates (Diagonal, Muenster, Germany). […] The bound radioactivity trapped on the filters was counted in the scintillation analyzer (Microbeta Counter, Perkin Elmer). […] The non-specific binding was determined with 10 μM unlabeled Ifenprodil. […]

The next assay concerns the target T2, σ1 receptor (Cavia porcellus, UniProt Q60492).
T2 construct: Five guinea pig brains (Harlan Winkelmann, Borchen, Germany) were homogenized; tissue Harlan Winkelmann, Borchen, Germany; host or cells: guinea pig brain membrane preparation
The assay is described as follows: Binding assay with [3H]-(+)-pentazocine, σ1 receptor. The note with it: guinea pig brain membranes, read-out: affinity to the σ1 receptor. How it is done:
Five guinea pig brains (Harlan Winkelmann, Borchen, Germany) were homogenized with the potter (500-800 rpm, 10 up-and-down strokes) in 6 volumes of cold 0.32 M sucrose. […] This procedure was repeated twice.
The incubation was terminated by rapid filtration through the presoaked filtermats using a cell harvester.

T1 sequence (Q13224 27-1484, other chains not shown): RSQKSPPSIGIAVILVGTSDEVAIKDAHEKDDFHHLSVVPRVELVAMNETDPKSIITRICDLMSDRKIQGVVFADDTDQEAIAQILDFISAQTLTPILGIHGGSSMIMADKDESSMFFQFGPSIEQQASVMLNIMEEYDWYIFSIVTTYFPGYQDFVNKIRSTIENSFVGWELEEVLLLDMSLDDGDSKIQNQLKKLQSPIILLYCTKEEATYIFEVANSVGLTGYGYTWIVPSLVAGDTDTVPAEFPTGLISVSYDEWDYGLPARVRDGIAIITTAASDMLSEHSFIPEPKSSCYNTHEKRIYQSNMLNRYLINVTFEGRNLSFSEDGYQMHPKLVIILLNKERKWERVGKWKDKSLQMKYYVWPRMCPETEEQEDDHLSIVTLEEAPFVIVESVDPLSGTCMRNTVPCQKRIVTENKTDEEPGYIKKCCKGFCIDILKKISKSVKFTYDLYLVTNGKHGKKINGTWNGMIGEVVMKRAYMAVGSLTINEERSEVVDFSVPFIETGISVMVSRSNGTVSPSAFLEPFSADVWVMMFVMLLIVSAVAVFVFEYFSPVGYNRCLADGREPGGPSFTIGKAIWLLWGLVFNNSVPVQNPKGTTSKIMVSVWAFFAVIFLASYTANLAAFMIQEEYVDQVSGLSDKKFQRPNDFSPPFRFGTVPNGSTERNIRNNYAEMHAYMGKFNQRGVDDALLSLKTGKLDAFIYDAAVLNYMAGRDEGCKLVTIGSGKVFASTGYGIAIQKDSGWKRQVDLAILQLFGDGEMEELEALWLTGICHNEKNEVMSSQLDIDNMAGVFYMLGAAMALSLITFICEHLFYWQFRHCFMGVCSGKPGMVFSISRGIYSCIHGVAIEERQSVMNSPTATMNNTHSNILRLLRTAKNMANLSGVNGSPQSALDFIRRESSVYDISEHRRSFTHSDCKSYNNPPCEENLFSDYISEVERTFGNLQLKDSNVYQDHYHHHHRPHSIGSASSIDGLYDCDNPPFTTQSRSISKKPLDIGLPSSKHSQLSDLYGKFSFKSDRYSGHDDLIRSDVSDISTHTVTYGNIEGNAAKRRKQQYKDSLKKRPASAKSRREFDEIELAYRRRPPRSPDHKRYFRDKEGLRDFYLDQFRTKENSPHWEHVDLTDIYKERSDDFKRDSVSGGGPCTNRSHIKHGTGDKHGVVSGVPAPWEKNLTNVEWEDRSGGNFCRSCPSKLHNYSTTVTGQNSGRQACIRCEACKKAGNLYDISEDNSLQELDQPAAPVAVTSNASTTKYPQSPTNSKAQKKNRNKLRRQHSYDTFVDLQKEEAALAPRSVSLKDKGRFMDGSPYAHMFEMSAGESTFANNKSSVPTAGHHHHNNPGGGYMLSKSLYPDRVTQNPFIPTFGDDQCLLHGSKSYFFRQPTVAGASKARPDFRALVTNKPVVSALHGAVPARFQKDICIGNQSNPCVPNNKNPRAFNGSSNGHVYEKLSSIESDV
T2 sequence (Q60492 whole entry): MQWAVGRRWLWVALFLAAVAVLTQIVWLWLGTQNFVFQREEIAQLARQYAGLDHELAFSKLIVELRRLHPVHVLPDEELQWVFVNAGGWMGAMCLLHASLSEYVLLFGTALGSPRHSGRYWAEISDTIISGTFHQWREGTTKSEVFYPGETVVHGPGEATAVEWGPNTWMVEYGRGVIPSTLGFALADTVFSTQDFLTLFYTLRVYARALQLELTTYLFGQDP

Turning to `COc1ccc2c(c1)CCN(CCCCc1ccccc1)CC2O` (centres unmarked) [formula (4)], the results for the Ki (in assay [1]; at σ1 receptor) were 15.3 ± 1.2 nM and 194 nM, respectively.
